# According to patent publication US7138361B2, “Herbicidal heterocycles” (E. I. du Pont de Nemours and Company, priority 2000, dated 2006):
# Experiments:
# Type in all cases: in vivo
# [1] = test system: barnyardgrass (Echinochloa crus-galli); assay: Test B postemergence; conditions: 13 to 15 days
# In short: (§1)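 Seeds were planted and sprayed preemergence with test chemical in a non-phytotoxic solvent mixture containing surfactant; postemergence plants (2 to 18 cm, 1- to 4-leaf stage) received the same formulation. Greenhouse hold 13 to 15 days, then visual rating versus untreated controls on a 0–100 scale (0 no effect, 100 complete control).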
# [2] = test system: wheat (Triticum aestivum); assay: Test B postemergence; conditions: 13 to 15 days
# In short: as §1
# wild oat (Avena fatua) = assay: Test B postemergence; conditions: 13 to 15 days
# In short: as §1
# corn (Zea mays) [3] = assay: Test B postemergence; conditions: 13 to 15 days
# In short: as §1
# Sunflower = assay: Test C preemergence; conditions: scale 0 to 100, 0 no effect, 100 complete control
# Nightshade [4] = assay: Test C preemergence; conditions: visual evaluation after 12 to 14 days
# [5] = test system: barnyardgrass (Echinochloa crus-galli); assay: Test C flooded paddy test; conditions: for Barnyardgrass plant response rating: Flooded Paddy, scale 0 to 100, 0 no effect, 100 complete control; for Plant response rating, Barnyardgrass: flooded paddy test, scale 0 to 100 (0 no effect, 100 complete control)
# In short: (§2)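 Rice and three paddy weeds were grown to the 2-leaf stage under flooded conditions, then treated and kept in a greenhouse for 12–14 days. Response was rated visually against untreated controls on a 0–100 scale, where 100 is complete control.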
# [6] = test system: duck salad (Heteranthera limosa); assay: Test C flooded paddy test; conditions: for Ducksalad plant response rating: Flooded Paddy, scale 0 to 100, 0 no effect, 100 complete control; for Plant response rating, Ducksalad: flooded paddy test, scale 0 to 100 (0 no effect, 100 complete control)
# In short: as §2
# rice (Oryza saliva) = assay: Test C flooded paddy test; conditions: for Rice plant response rating: Flooded Paddy, scale 0 to 100, 0 no effect, 100 complete control; for Plant response rating, Rice: flooded paddy test, scale 0 to 100 (0 no effect, 100 complete control)
# In short: as §2
# [7] = test system: smallflower flatsedge (Cyperus difformis); assay: Test C flooded paddy test; conditions: for Flatsedge plant response rating: Flooded Paddy, scale 0 to 100, 0 no effect, 100 complete control; for Plant response rating, Flatsedge: flooded paddy test, scale 0 to 100 (0 no effect, 100 complete control)
# In short: as §2
# soybean (Glycine max) = assay: Test C preemergence; conditions: for Plant response rating (0 to 100), Soybean: visual evaluation after 12 to 14 days
# In short: (§3)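 Pre- and postemergence treatments used a non-phytotoxic solvent/surfactant formulation; post-treated plants measured 2 to 18 cm. Greenhouse hold 12–14 d; % control estimated visually relative to controls.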
# [8] = test system: johnsongrass (Sorghum halepense); assay: Test C preemergence; conditions: for Plant response rating (0 to 100), Johnsongrass: visual evaluation after 12 to 14 days
# In short: as §3
# [9] = test system: yellow nutsedge (Cyperus esculentus); assay: Test C preemergence; conditions: for Plant response rating (0 to 100), Nutsedge: visual evaluation after 12 to 14 days
# In short: as §3
# [10] = test system: woolly cupgrass (Eriochloa villosa); assay: Test C preemergence; conditions: for Plant response rating (0 to 100), Cupgrass, Woolly: visual evaluation after 12 to 14 days
# In short: as §3
# [11] = test system: lambsquarters (Chenopodium album); assay: Test C preemergence; conditions: for Plant response rating (0 to 100), Lambsquarters: visual evaluation after 12 to 14 days
# In short: as §3
# corn (Zea mays) [12] = assay: Test C preemergence; conditions: for Plant response rating (0 to 100), Corn: visual evaluation after 12 to 14 days
# In short: as §3
# Nightshade [13] = assay: Test C preemergence
# [14] = test system: pigweed (Amaranthus retroflexus); assay: Test C preemergence; conditions: for Plant response rating (0 to 100), Pigweed: visual evaluation after 12 to 14 days
# In short: as §3
# kochia (Kochia scoparia) = assay: Test C preemergence; conditions: for Plant response rating (0 to 100), Kochia: visual evaluation after 12 to 14 days
# In short: as §3
# [15] = Rate 125 g/ha, scale 0 (no effect) to 100 (complete control)
# [16] = Rate 500 g/ha, scale 0 to 100, 0 is no effect, 100 is complete control
# [17] = Preemergence, Rate 500 g/ha, scale 0 to 100
# [18] = Rate 62 g/ha, scale 0 to 100, 0 no effect, 100 complete control
# [19] = preemergence, Rate 125 g/ha, scale 0 to 100, 0 no effect, 100 complete control
# [20] = Rate 62 g/ha; scale 0 to 100, 0 no effect, 100 complete control
# [21] = Rate 125 g/ha, scale 0 to 100, 0 no effect, 100 complete control
# [22] = preemergence, Rate 250 g/ha, scale 0 to 100, 0 no effect, 100 complete control
compound,measurement,setting,value
O=C1C(n2ccc(C3CCC3)n2)OCN1c1cccc(C(F)(F)F)c1 (stereo not drawn) [Compound 39],"Plant response rating, Barnyardgrass",[1]; [15],0
same,"Plant response rating, Barnyardgrass",[1]; [16],100
same,"Plant response rating, Wheat",[2]; [15],0
same,"Plant response rating, Wheat",[2]; [16],0
same,"Plant response rating, Wild Oat",wild oat (Avena fatua); [15],0
same,"Plant response rating, Wild Oat",wild oat (Avena fatua); [16],0
same,"Plant response rating, Corn",corn (Zea mays) [3]; [15],0
same,"Plant response rating, Corn",corn (Zea mays) [3]; [16],10
same,"Plant response rating, Sunflower",Sunflower; Rate 125 g/ha,0
same,"Plant response rating (0 to 100), Nightshade",Nightshade [4]; Rate 250 g/ha,0
same,Barnyardgrass plant response rating,[5]; Rate 250 g/ha,100
same,Barnyardgrass plant response rating,[5]; Rate 500 g/ha,100
same,"Plant response rating, Barnyardgrass",[5]; Rate 62 g/ha,80
same,"Plant response rating, Barnyardgrass",[5]; Rate 125 g/ha,80
same,Ducksalad plant response rating,[6]; Rate 250 g/ha,70
same,Ducksalad plant response rating,[6]; Rate 500 g/ha,100
same,"Plant response rating, Ducksalad",[6]; Rate 62 g/ha,20
same,"Plant response rating, Ducksalad",[6]; Rate 125 g/ha,60
same,Rice plant response rating,rice (Oryza saliva); Rate 250 g/ha,0
same,Rice plant response rating,rice (Oryza saliva); Rate 500 g/ha,70
same,"Plant response rating, Rice",rice (Oryza saliva); Rate 62 g/ha,0
same,"Plant response rating, Rice",rice (Oryza saliva); Rate 125 g/ha,0
same,Flatsedge plant response rating,[7]; Rate 250 g/ha,100
same,Flatsedge plant response rating,[7]; Rate 500 g/ha,100
same,"Plant response rating, Flatsedge",[7]; Rate 62 g/ha,90
same,"Plant response rating, Flatsedge",[7]; Rate 125 g/ha,100
same,"Plant response rating, Soybean",soybean (Glycine max); [17],0
same,"Plant response rating, Soybean",soybean (Glycine max); [18],0
same,"Plant response rating (0 to 100), Soybean","soybean (Glycine max); preemergence, Rate 250 g/ha",0
same,"Plant response rating, Soybean",soybean (Glycine max); [19],0
same,"Plant response rating, Johnsongrass",[8]; [17],90
same,"Plant response rating, Johnsongrass",[8]; [18],0
same,"Plant response rating (0 to 100), Johnsongrass","[8]; preemergence, Rate 250 g/ha",70
same,"Plant response rating, Johnsongrass",[8]; [19],0
same,"Plant response rating, Nutsedge",[9]; [17],40
same,"Plant response rating, Nutsedge",[9]; [18],0
same,"Plant response rating (0 to 100), Nutsedge","[9]; preemergence, Rate 250 g/ha",0
same,"Plant response rating, Nutsedge",[9]; [19],0
same,"Plant response rating, Cupgrass, Woolly",[10]; [17],100
same,"Plant response rating, Cupgrass, Woolly",[10]; [18],0
same,"Plant response rating (0 to 100), Cupgrass, Woolly","[10]; preemergence, Rate 250 g/ha",90
same,"Plant response rating, Cupgrass, Woolly",[10]; [19],20
same,"Plant response rating, Lambsquarters",[11]; [17],100
same,"Plant response rating, Lambsquarters",[11]; [18],100
same,"Plant response rating (0 to 100), Lambsquarters","[11]; preemergence, Rate 250 g/ha",100
same,"Plant response rating, Lambsquarters",[11]; [19],100
same,"Plant response rating, Corn",corn (Zea mays) [12]; [17],70
same,"Plant response rating, Corn",corn (Zea mays) [12]; [18],0
same,"Plant response rating (0 to 100), Corn","corn (Zea mays) [12]; preemergence, Rate 250 g/ha",0
same,"Plant response rating, Corn",corn (Zea mays) [12]; [19],0
same,"Plant response rating, Nightshade",Nightshade [13]; [20],0
same,"Plant response rating, Nightshade",Nightshade [13]; [21],0
same,"Plant response rating, Nightshade","Nightshade [13]; Rate 500 g/ha, scale 0 to 100",0
same,"Plant response rating, Pigweed",[14]; [17],100
same,"Plant response rating, Pigweed",[14]; [18],0
same,"Plant response rating (0 to 100), Pigweed","[14]; preemergence, Rate 250 g/ha",0
same,"Plant response rating, Pigweed",[14]; [19],0
same,"Plant response rating, Kochia",kochia (Kochia scoparia); [17],90
same,"Plant response rating, Kochia",kochia (Kochia scoparia); [18],0
same,"Plant response rating (0 to 100), Kochia","kochia (Kochia scoparia); preemergence, Rate 250 g/ha",70
same,"Plant response rating, Kochia",kochia (Kochia scoparia); [19],50
CC(C)(C)c1ccn(C2CCN(c3cccc(OC(F)F)c3)C2=O)n1 (stereo not drawn) [Compound 76],"Plant response rating, Barnyardgrass",[1]; [15],0
same,"Plant response rating, Barnyardgrass",[1]; [16],90
same,"Plant response rating, Wheat",[2]; [15],0
same,"Plant response rating, Wheat",[2]; [16],0
same,"Plant response rating, Wild Oat",wild oat (Avena fatua); [15],0
same,"Plant response rating, Wild Oat",wild oat (Avena fatua); [16],0
same,"Plant response rating, Corn",corn (Zea mays) [3]; [15],0
same,"Plant response rating, Corn",corn (Zea mays) [3]; [16],0
same,"Plant response rating, Sunflower",Sunflower; Rate 250 g/ha,30
same,"Plant response rating (0 to 100), Nightshade",Nightshade [4]; Rate 500 g/ha,60
same,Barnyardgrass plant response rating,[5]; Rate 250 g/ha,90
same,Barnyardgrass plant response rating,[5]; Rate 500 g/ha,90
same,"Plant response rating, Barnyardgrass",[5]; Rate 62 g/ha,40
same,"Plant response rating, Barnyardgrass",[5]; Rate 125 g/ha,90
same,Ducksalad plant response rating,[6]; Rate 250 g/ha,80
same,Ducksalad plant response rating,[6]; Rate 500 g/ha,100
same,"Plant response rating, Ducksalad",[6]; Rate 62 g/ha,30
same,"Plant response rating, Ducksalad",[6]; Rate 125 g/ha,80
same,Rice plant response rating,rice (Oryza saliva); Rate 250 g/ha,80
same,Rice plant response rating,rice (Oryza saliva); Rate 500 g/ha,80
same,"Plant response rating, Rice",rice (Oryza saliva); Rate 62 g/ha,20
same,"Plant response rating, Rice",rice (Oryza saliva); Rate 125 g/ha,40
same,Flatsedge plant response rating,[7]; Rate 250 g/ha,90
same,Flatsedge plant response rating,[7]; Rate 500 g/ha,90
same,"Plant response rating, Flatsedge",[7]; Rate 62 g/ha,90
same,"Plant response rating, Flatsedge",[7]; Rate 125 g/ha,90
same,"Plant response rating, Soybean",soybean (Glycine max); [21],0
same,"Plant response rating (0 to 100), Soybean","soybean (Glycine max); preemergence, Rate 500 g/ha",0
same,"Plant response rating, Soybean",soybean (Glycine max); [22],0
same,"Plant response rating, Johnsongrass",[8]; [18],20
same,"Plant response rating, Johnsongrass",[8]; [21],30
same,"Plant response rating (0 to 100), Johnsongrass","[8]; preemergence, Rate 250 g/ha",40
same,"Plant response rating (0 to 100), Johnsongrass","[8]; preemergence, Rate 500 g/ha",100
same,"Plant response rating, Nutsedge",[9]; [18],0
same,"Plant response rating, Nutsedge",[9]; [21],0
same,"Plant response rating (0 to 100), Nutsedge","[9]; preemergence, Rate 500 g/ha",20
same,"Plant response rating, Nutsedge",[9]; [22],20
same,"Plant response rating, Cupgrass, Woolly",[10]; [18],50
same,"Plant response rating, Cupgrass, Woolly",[10]; [21],100
same,"Plant response rating (0 to 100), Cupgrass, Woolly","[10]; preemergence, Rate 250 g/ha",100
same,"Plant response rating (0 to 100), Cupgrass, Woolly","[10]; preemergence, Rate 500 g/ha",100
same,"Plant response rating, Lambsquarters",[11]; [18],100
same,"Plant response rating, Lambsquarters",[11]; [21],100
same,"Plant response rating (0 to 100), Lambsquarters","[11]; preemergence, Rate 500 g/ha",100
same,"Plant response rating, Lambsquarters",[11]; [22],100
same,"Plant response rating, Corn",corn (Zea mays) [12]; [18],20
same,"Plant response rating, Corn",corn (Zea mays) [12]; [21],20
same,"Plant response rating (0 to 100), Corn","corn (Zea mays) [12]; preemergence, Rate 250 g/ha",20
same,"Plant response rating (0 to 100), Corn","corn (Zea mays) [12]; preemergence, Rate 500 g/ha",80
same,"Plant response rating, Nightshade",Nightshade [13]; [20],0
same,"Plant response rating, Nightshade","Nightshade [13]; Rate 125 g/ha; scale 0 to 100, 0 no effect, 100 complete control",30
same,"Plant response rating, Nightshade","Nightshade [13]; Rate 250 g/ha, scale 0 to 100, 0 no effect, 100 complete control",40
same,"Plant response rating, Pigweed",[14]; [21],100
same,"Plant response rating (0 to 100), Pigweed","[14]; preemergence, Rate 500 g/ha",100
same,"Plant response rating, Pigweed",[14]; [22],0
same,"Plant response rating, Kochia",kochia (Kochia scoparia); [18],100
same,"Plant response rating, Kochia",kochia (Kochia scoparia); [21],100
same,"Plant response rating (0 to 100), Kochia","kochia (Kochia scoparia); preemergence, Rate 250 g/ha",100
same,"Plant response rating (0 to 100), Kochia","kochia (Kochia scoparia); preemergence, Rate 500 g/ha",100
